Consider 2 compounds from PubChem BioAssay (NCI).

Holding throughout (test): NCI-60 cell line screen, 48 h
Experiment [1] deals with HL-60(TB) leukemia.
Experiment [2] deals with SK-MEL-5 melanoma.
Experiment [3] relates to BT-549 breast.
In experiment [4] the test system is M14 melanoma.
In experiment [5] the test system is NCI-H522 lung.
Experiment [6] relates to LOX IMVI melanoma.
Experiment [7] relates to NCI-H460 lung.
Experiment [8] deals with MOLT-4 leukemia.
For experiment [9], the system named is OVCAR-4 ovarian.
For experiment [10], the system named is HCT-15 colon.

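Growth conditions: 96-well plates. Treatment: test compound, 48 hours, 5 concentrations. Analysis: linear interpolation between bracketing concentrations; unreached endpoints set to highest concentration. The concentration for 50% growth inhibition is given as GI50. Definition used: TGI = concentration required for complete inhibition of growth.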

Regarding `COc1ccc2nc3cc([N+](=O)[O-])ccc3c(NCCCN(CCO)CCO)c2c1`, the GI50 in [1] was 2.56 µM; in experiment [2], 1.8 µM; in [3] it was 5.58 µM; in experiment [4], 2.36 µM; in experiment [5], 1.36 µM; in experiment [6], 2.42 µM. The GI50 in experiment [7] was 2.18 µM; in experiment [8], 2.59 µM; in experiment [9], 3.81 µM; in experiment [10], 12.8 µM. In addition, the TGI in experiment [1] came to 22.7 µM; in [2], 4.69 µM; in [3], 12.8 µM; in experiment [4] it was 5.18 µM; in experiment [5], 2.86 µM; in experiment [6], 6.32 µM. In addition, the TGI was 8.75 µM in experiment [7], 5.99 µM in experiment [8], 11.4 µM in experiment [9] and 25.4 µM in [10].

With `Cn1c(/C=C(\C#N)c2cccc(C(F)(F)F)c2)nc2c(N3CCOCC3)nc(Cl)nc21`, the GI50 in experiment [1] is 0.486 µM; in [2] it was 1.6 µM; in experiment [3], 0.569 µM; in experiment [4] it was 0.733 µM; in experiment [5], 0.657 µM; in experiment [6] it was 0.321 µM. The GI50 in experiment [7] is 1.67 µM; in experiment [8], 0.381 µM; in [9], 1 µM; in experiment [10], 0.221 µM. In addition, the TGI in experiment [1] worked out at 2.54 µM; in [2], 2.97 µM; in experiment [3], 1.96 µM; in [4] it was 2.08 µM; in experiment [5], 2.32 µM; in experiment [6], 1.36 µM. The TGI came out at 3.61 µM in experiment [7], 1.55 µM in experiment [8], 2.41 µM in [9] and 0.61 µM in experiment [10].
